Source: ChEMBL document CHEMBL3885881, “DrugMatrix”

Species on record: Rattus norvegicus
Assay: DrugMatrix - Regimen: Daily Repeat
Type: toxicity, organism-based, Sprague-Dawley
Parameters: regimen Daily Repeat, gender Male, age 6-8 weeks
Details: in vivo, po, route oral GAVAGE, vehicle .5 % CMC; for ABSOLUTE BASOPHIL / ABSOLUTE EOSINOPHIL / ABSOLUTE LYMPHOCYTE / ABSOLUTE MONOCYTE / ABSOLUTE SEGMENTED NEUTROPHIL / BASOPHIL / EOSINOPHIL / ERYTHROCYTE COUNT / HEMATOCRIT / HEMOGLOBIN / LEUKOCYTE COUNT / LYMPHOCYTE / MEAN CORPUSCULAR HEMOGLOBIN / MEAN CORPUSCULAR HEMOGLOBIN CONCENTRATION / MEAN CORPUSCULAR VOLUME / MONOCYTE / NEUTROPHIL / NUCLEATED RED BLOOD CELLS / PLATELET COUNT: tissue Blood; for ALANINE AMINOTRANSFERASE / ALBUMIN / ALKALINE PHOSPHATASE / ASPARTATE AMINOTRANSFERASE / BLOOD UREA NITROGEN / CARBON DIOXIDE / CHLORIDE / CHOLESTEROL / CREATINE PHOSPHOKINASE / CREATININE / GLUCOSE / LACTATE DEHYDROGENASE / LIPASE / PHOSPHORUS / POTASSIUM / SODIUM / TOTAL BILIRUBIN / TOTAL PROTEIN / URIC ACID: tissue Plasma
[1] = 0 mg/kg, 72 h, dose level Control, time 3 day
[2] = 0 mg/kg, 120 h, dose level Control, time 5 day
[3] = 19 mg/kg, 72 h, dose level High, time 3 day

Compound: NCC(CC(=O)O)c1ccc(Cl)cc1 (centres undefined) [BACLOFEN]
- ABSOLUTE BASOPHIL [1]: 0 CELLS/uL
- ABSOLUTE EOSINOPHIL [1]: 171.33 CELLS/uL
- ABSOLUTE LYMPHOCYTE [1]: 13776.5 CELLS/uL
- ABSOLUTE MONOCYTE [1]: 180.83 CELLS/uL
- ABSOLUTE SEGMENTED NEUTROPHIL [1]: 1121.33 CELLS/uL
- BASOPHIL [1]: 0%
- EOSINOPHIL [1]: 1%
- ERYTHROCYTE COUNT [1]: 5.56 x10E6/uL
- HEMATOCRIT [1]: 34.75%
- HEMOGLOBIN [1]: 13.68 G/DL
- LEUKOCYTE COUNT [1]: 15.25 x10E3/uL
- LYMPHOCYTE [1]: 90.17%
- MEAN CORPUSCULAR HEMOGLOBIN [1]: 24.6 pg
- MEAN CORPUSCULAR HEMOGLOBIN CONCENTRATION [1]: 39.4 G/DL
- MEAN CORPUSCULAR VOLUME [1]: 62.48 fL
- MONOCYTE [1]: 1.17%
- NEUTROPHIL [1]: 7.67%
- NUCLEATED RED BLOOD CELLS [1]: 0 /100WBC
- PLATELET COUNT [1]: 1342 x10E3/uL
- ALANINE AMINOTRANSFERASE [1]: 49.67 u/L
- ALBUMIN [1]: 4.15 G/DL
- ALKALINE PHOSPHATASE [1]: 346.83 u/L
- ASPARTATE AMINOTRANSFERASE [1]: 108.17 u/L
- BLOOD UREA NITROGEN [1]: 17.33 mg/dL
- CARBON DIOXIDE [1]: 25 mmol/L
- CHLORIDE [1]: 100.83 MEQ/L
- CHOLESTEROL [1]: 66.83 mg/dL
- CREATINE PHOSPHOKINASE [1]: 788 u/L
- CREATININE [1]: 0.18 mg/dL
- GLUCOSE [1]: 151.67 mg/dL
- LACTATE DEHYDROGENASE [1]: 982.5 u/L
- LIPASE [1]: 10.33 u/L
- PHOSPHORUS [1]: 11.23 mg/dL
- POTASSIUM [1]: 6.37 MEQ/L
- SODIUM [1]: 141.02 MEQ/L
- TOTAL BILIRUBIN [1]: 0.18 mg/dL
- TOTAL PROTEIN [1]: 5.9 G/DL
- URIC ACID [1]: 1.8 mg/dL
- ABSOLUTE BASOPHIL [2]: 0 CELLS/uL
- ABSOLUTE EOSINOPHIL [2]: 69 CELLS/uL
- ABSOLUTE LYMPHOCYTE [2]: 13632.83 CELLS/uL
- ABSOLUTE MONOCYTE [2]: 139.83 CELLS/uL
- ABSOLUTE SEGMENTED NEUTROPHIL [2]: 1225 CELLS/uL
- BASOPHIL [2]: 0%
- EOSINOPHIL [2]: 0.33%
- ERYTHROCYTE COUNT [2]: 5.52 x10E6/uL
- HEMATOCRIT [2]: 33.98%
- HEMOGLOBIN [2]: 13.22 G/DL
- LEUKOCYTE COUNT [2]: 15.07 x10E3/uL
- LYMPHOCYTE [2]: 90.83%
- MEAN CORPUSCULAR HEMOGLOBIN [2]: 23.95 pg
- MEAN CORPUSCULAR HEMOGLOBIN CONCENTRATION [2]: 38.9 G/DL
- MEAN CORPUSCULAR VOLUME [2]: 61.53 fL
- MONOCYTE [2]: 0.83%
- NEUTROPHIL [2]: 8%
- NUCLEATED RED BLOOD CELLS [2]: 0 /100WBC
- PLATELET COUNT [2]: 1196 x10E3/uL
- ALANINE AMINOTRANSFERASE [2]: 49.17 u/L
- ALBUMIN [2]: 4.2 G/DL
- ALKALINE PHOSPHATASE [2]: 352.33 u/L
- ASPARTATE AMINOTRANSFERASE [2]: 89.67 u/L
- BLOOD UREA NITROGEN [2]: 18 mg/dL
- CARBON DIOXIDE [2]: 27.67 mmol/L
- CHLORIDE [2]: 101 MEQ/L
- CHOLESTEROL [2]: 72.83 mg/dL
- CREATINE PHOSPHOKINASE [2]: 417.5 u/L
- CREATININE [2]: 0.18 mg/dL
- GLUCOSE [2]: 150.5 mg/dL
- LACTATE DEHYDROGENASE [2]: 517.33 u/L
- LIPASE [2]: 9 u/L
- PHOSPHORUS [2]: 11.87 mg/dL
- POTASSIUM [2]: 6.57 MEQ/L
- SODIUM [2]: 143.62 MEQ/L
- TOTAL BILIRUBIN [2]: 0.2 mg/dL
- TOTAL PROTEIN [2]: 6.08 G/DL
- URIC ACID [2]: 1.45 mg/dL
- ABSOLUTE BASOPHIL [3]: 0 CELLS/uL
- ABSOLUTE EOSINOPHIL [3]: 0 CELLS/uL
- ABSOLUTE LYMPHOCYTE [3]: 12161.33 CELLS/uL
- ABSOLUTE MONOCYTE [3]: 182.33 CELLS/uL
- ABSOLUTE SEGMENTED NEUTROPHIL [3]: 1123 CELLS/uL
- BASOPHIL [3]: 0%
- EOSINOPHIL [3]: 0%
- ERYTHROCYTE COUNT [3]: 5.27 x10E6/uL
- HEMATOCRIT [3]: 34.17%
- HEMOGLOBIN [3]: 13.33 G/DL
- LEUKOCYTE COUNT [3]: 13.47 x10E3/uL
- LYMPHOCYTE [3]: 90.33%
- MEAN CORPUSCULAR HEMOGLOBIN [3]: 25.37 pg
- MEAN CORPUSCULAR HEMOGLOBIN CONCENTRATION [3]: 39.03 G/DL
- MEAN CORPUSCULAR VOLUME [3]: 64.97 fL
- MONOCYTE [3]: 1.33%
- NEUTROPHIL [3]: 8.33%
- NUCLEATED RED BLOOD CELLS [3]: 0 /100WBC
- PLATELET COUNT [3]: 1177 x10E3/uL
- ALANINE AMINOTRANSFERASE [3]: 54.33 u/L
- ALBUMIN [3]: 4.03 G/DL
- ALKALINE PHOSPHATASE [3]: 373.67 u/L
- ASPARTATE AMINOTRANSFERASE [3]: 85.33 u/L
- BLOOD UREA NITROGEN [3]: 15.33 mg/dL
- CARBON DIOXIDE [3]: 26.33 mmol/L
- CHLORIDE [3]: 101.67 MEQ/L
- CHOLESTEROL [3]: 64 mg/dL
- CREATINE PHOSPHOKINASE [3]: 394.67 u/L
- CREATININE [3]: 0.16 mg/dL
- GLUCOSE [3]: 125 mg/dL
- LACTATE DEHYDROGENASE [3]: 438.33 u/L
- LIPASE [3]: 10 u/L
- PHOSPHORUS [3]: 11.93 mg/dL
- POTASSIUM [3]: 7.01 MEQ/L
- SODIUM [3]: 142.53 MEQ/L
- TOTAL BILIRUBIN [3]: 0.2 mg/dL
- TOTAL PROTEIN [3]: 5.53 G/DL
- URIC ACID [3]: 1.57 mg/dL
